Results from patent US7776862B2, “Pyridyl and phenyl substituted piperazine-piperidines with CXCR3 antagonist activity” (Schering Corporation, priority 2005, dated 2010).

Molecular target: T1, human CXCR3 (N-delta 4) (Homo sapiens, UniProt P49682)
T1 construct: CD8 leader; Flag tag; expressed in transfected cells; membranes used
T1 sequence (P49682 5-368 limits assumed): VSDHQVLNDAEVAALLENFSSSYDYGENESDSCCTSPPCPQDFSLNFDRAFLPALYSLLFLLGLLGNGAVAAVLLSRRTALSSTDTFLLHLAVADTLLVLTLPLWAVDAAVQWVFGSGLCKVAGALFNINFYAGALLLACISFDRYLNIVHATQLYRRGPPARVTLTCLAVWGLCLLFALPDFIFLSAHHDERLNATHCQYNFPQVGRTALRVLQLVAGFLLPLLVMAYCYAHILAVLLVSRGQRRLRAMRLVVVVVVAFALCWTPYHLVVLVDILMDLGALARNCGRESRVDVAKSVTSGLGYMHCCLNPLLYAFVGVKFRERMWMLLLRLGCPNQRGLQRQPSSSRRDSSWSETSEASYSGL
Assay: Human CXCR3 (N-delta 4) scintillation proximity assay (SPA), [125I] IP-10 binding
Outline: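 Membranes from mouse Ba/F3 pro-B cells stably expressing Flag-tagged human CXCR3 (N-delta 4) were coupled to SPA beads. IP-10 was added together with titrated compounds to start the reaction, and bound radioligand was read by scintillation proximity.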

[1] = IC50 rating, Ba/F3-hCXCR3 (N-delta 4) membranes, 25 pM [125I] IP-10

Row | Structure (SMILES) | IC50 [1] | IC50 (value given in text as example)
1 | O=C(NCc1cc(Cl)cc(Cl)c1)c1cnc(N2CCN(C3CCN(Cc4ccc(Cl)cc4)CC3)CC2)c(Cl)c1 [compound 52] | > 100 nM | –
2 | N#Cc1ccc(CN2CCC(N3CCN(c4ncc(C(=O)NCc5ccc(F)cc5F)cc4Cl)CC3)CC2)cc1 [compound 86] | > 100 nM | –
3 | CC/N=C(/NCC)c1cnc(N2CCN(C3CCN(Cc4ccc(Cl)cc4)CC3)[C@@H](C)C2)c(Cl)c1 [compound 439] | > 100 nM | –
4 | O=C(NCCc1c[nH]c2ccccc12)c1cnc(N2CCN(C3CCN(Cc4ccc(Cl)cc4)CC3)CC2)c(Cl)c1 [compound 364] | > 100 nM | –
5 | O=C(NCCOc1ccccc1)c1cnc(N2CCN(C3CCN(Cc4ccc(-c5ccccc5)cc4)CC3)CC2)c(Cl)c1 [compound 165] | > 100 nM | –
6 | C[C@@H]1CN(C2CCN(Cc3ccc(C#N)cc3)CC2)CCN1c1ncc(C(=O)NCc2ccc(Cl)c(Cl)c2)cc1Cl [compound 173] | > 100 nM | –
7 | N#Cc1ccc(CN2CCC(N3CCN(c4ncc(C(=O)NCc5ccccc5)cc4Cl)CC3)CC2)cc1 [compound 21] | > 100 nM | –
8 | CC[C@H]1CN(c2ncc(C(C)O)cc2Cl)CCN1C1CCN(Cc2ccc(Cl)cc2F)CC1 (stereo partly shown) [compound 433] | > 100 nM | –
9 | O=C(NCc1cccc(Cl)c1)c1cnc(N2CCN(C3CCN(Cc4ccc(F)cc4)CC3)CC2)c(Cl)c1 [compound 57] | > 100 nM | –
10 | O=C(NCc1ccc(F)cc1)c1cnc(N2CCN(C3CCN(Cc4ccc(F)cc4F)CC3)CC2)c(Cl)c1 [compound 34] | > 100 nM | –
11 | O=C(NCc1ccccc1)c1cnc(N2CCN(C3CCN(Cc4ccc(Cl)cc4)CC3)CC2)c(Cl)c1 [compound 72] | > 100 nM | –
12 | CC[C@H]1CN(c2ncc(C(=O)OC)cc2Cl)CCN1C1CCN(Cc2ccc(F)cc2C(F)(F)F)CC1 [compound 447] | > 100 nM | –
13 | O=C(NCc1cccc(F)c1)c1cnc(N2CCN(C3CCN(Cc4ccc(F)c(F)c4)CC3)CC2)c(Cl)c1 [compound 91] | > 100 nM | –
14 | O=C(NCc1ccc(Cl)cc1F)c1cnc(N2CCN(C3CCN(Cc4ccc(F)cc4F)CC3)CC2)c(Cl)c1 [compound 88] | > 100 nM | –
15 | CNC(=O)c1cnc(N2CCN(C3CCN(C(=O)c4ccc(Cl)cc4)CC3)[C@@H](C)C2)c(Cl)c1 [compound 337] | > 100 nM | –
16 | CC(c1ccc(Cl)cc1)N1CCC(N2CCN(c3ncc(C(=O)NCc4ccc(Cl)c(Cl)c4)cc3Cl)CC2)CC1 (stereo not shown) [compound 45] | > 100 nM | –
17 | COc1ccc(CN2CCC(N3CCN(c4ncc(C(=O)NCc5ccc(Cl)cc5Cl)cc4Cl)CC3)CC2)cc1 [compound 63] | > 100 nM | –
18 | CCC(=NO)c1cnc(N2CCN(C3CCN(Cc4ccc(Cl)cc4F)CC3)[C@@H](CC)C2)c(Cl)c1 [compound 444] | > 100 nM | –
19 | O=C(NCCOc1ccccc1)c1cnc(N2CCN(C3CCN(Cc4ccc(F)cc4)CC3)CC2)c(Cl)c1 [compound 60] | > 100 nM | –
20 | CC[C@H]1CN(c2ncc(C(=N)N)cc2Cl)CCN1C1CCN(C(=O)c2ccc(Cl)nc2N)CC1 [compound 442] | > 100 nM | –
21 | O=C(NCc1ccc(Cl)cc1Cl)c1cnc(N2CCN(C3CCN(Cc4ccc(F)cc4F)CC3)CC2)c(Cl)c1 [compound 59] | > 100 nM | –
22 | CNC(=O)c1cnc(N2CCN(C3CCN(Cc4c(F)cccc4F)CC3)[C@@H](C)C2)c(Cl)c1 [compound 366] | > 100 nM | –
23 | N#Cc1ccc(CN2CCC(N3CCN(c4ncc(C(=O)NCc5ccccc5F)cc4Cl)CC3)CC2)cc1 [compound 6] | > 100 nM | –
24 | CCOC(CNC(=N)c1cnc(N2CCN(C3CCN(C(=O)c4ccc(Cl)cc4)CC3)[C@@H](CC)C2)c(Cl)c1)OCC [compound 453] | > 100 nM | –
25 | CCNC(=O)c1cnc(N2CCN(C3CCN(C(C)(C)c4ccc(Cl)cc4)CC3)[C@@H](C)C2)c(Cl)c1 [compound 326] | > 100 nM | –
26 | O=C(NCc1cccc(Cl)c1)c1cnc(N2CCN(C3CCN(Cc4ccc(F)cc4F)CC3)CC2)c(Cl)c1 [compound 28] | > 100 nM | –

Second part, the compound after the results:

Row | IC50 [1] | IC50 (value given in text as example) | Structure (SMILES)
27 | < 25 nM | – | CC[C@H]1CN(c2ncc(CNC(C)=O)cc2Cl)CCN1C1CCN(Cc2ccc(Cl)cc2F)CC1 [compound 387]
28 | > 100 nM | – | Cc1cc(C(=O)NCc2ccc(Cl)c(Cl)c2)cnc1N1CCN(C2CCN(Cc3ccc(Cl)cc3)CC2)CC1 [compound 201]
29 | 25 to 100 nM | – | C[C@H]1CN(c2ncc(C(=O)Nc3cc[nH]n3)cc2Cl)CCN1C1CCN(Cc2ccc(Cl)cc2)CC1 [compound 312]
30 | > 100 nM | – | CC(c1ccc([N+](=O)[O-])cc1)N1CCC(N2CCN(c3ncc(C(=O)NCc4ccc(Cl)c(Cl)c4)cc3Cl)CC2)CC1 (stereo not shown) [compound 74]
31 | 25 to 100 nM | – | CNC(=O)c1cnc(N2CCN(C3CCN(Cc4ccc(Cl)cc4)CC3)CC2C)c(Cl)c1 (stereo not shown) [compound 138]
32 | 25 to 100 nM | – | O=C(NCc1ccc(F)c(F)c1)c1cnc(N2CCN(C3CCN(Cc4ccc(Br)cc4)CC3)CC2)c(Cl)c1 [compound 267]
33 | < 25 nM | – | CC[C@H]1CN(c2ncc(CNC(=O)NC(C)(C)C)cc2Cl)CCN1C1CCN(Cc2ccc(Cl)cc2F)CC1 [compound 373]
34 | < 25 nM | – | C[C@H]1CN(c2ncc(C(=O)NCc3ccc(F)c(F)c3)cc2Cl)CCN1C1CCN(Cc2ccc(Cl)cc2)CC1 [compound 226]
35 | 25 to 100 nM | – | C[C@H]1CN(c2ncc(C(=O)NCc3ccc(F)c(F)c3)cc2Cl)CCN1C1CCN(C(=O)c2ccc(C#N)cc2)CC1 [compound 291]
36 | < 25 nM | – | C[C@@H](NC(=O)c1cnc(N2CCN(C3CCN(Cc4ccc(Cl)cc4)CC3)[C@@H](C)C2)c(Cl)c1)C1CCCCC1 [compound 247]
37 | < 25 nM | 0.2 nM | CCNC(=O)c1cnc(N2CCN(C3CCN(Cc4ccc(Cl)cc4F)CC3)[C@@H](CC)C2)c(Cl)c1 [compound 212]
38 | 25 to 100 nM | – | O=C(NCc1cccc(Cl)c1)c1cnc(N2CCN(C3CCN(Cc4ccc(F)c(F)c4)CC3)CC2)c(Cl)c1 [compound 118]
39 | 25 to 100 nM | – | N#Cc1ccc(CN2CCC(N3CCN(c4ncc(C(=O)NCc5ccc(Cl)c(Cl)c5)cc4Br)CC3)CC2)cc1 [compound 145]
40 | < 25 nM | – | CC[C@H]1CN(c2ncc(CNC(=O)NC(C)C)cc2Cl)CCN1C1CCN(Cc2ccc(Cl)cc2F)CC1 [compound 370]
41 | 25 to 100 nM | – | O=C(NCc1ccc(F)c(F)c1)c1cnc(N2CCN(C3CCN(Cc4ccc([N+](=O)[O-])cc4)CC3)CC2)c(Cl)c1 [compound 268]
42 | 25 to 100 nM | – | CC[C@H]1CN(c2ncc(CO)cc2Cl)CCN1C1CCN(C(=O)c2ccc(Br)cc2)CC1 [compound 418]
43 | 25 to 100 nM | – | O=C(NCc1ccc(Cl)c(Cl)c1)c1cnc(N2CCN(C3CCN(Cc4ccc(Cl)cc4)CC3)CC2)c(Cl)c1 [compound 286]
44 | < 25 nM | – | CC1CN(c2ncc(C(=O)NCc3ccc(Cl)c(Cl)c3)cc2Cl)CCN1C1CCN(Cc2ccc([N+](=O)[O-])cc2)CC1 (stereo not shown) [compound 186]
45 | 25 to 100 nM | – | O=C(NCc1ccc(Br)cc1)c1cnc(N2CCN(C3CCN(Cc4ccc(Cl)cc4)CC3)CC2)c(Cl)c1 [compound 136]

Row | IC50 [1] | IC50 (value given in text as example) | Structure (SMILES)
46 | < 25 nM | – | CNC(=O)c1cnc(N2CCN(C3CCN(C(C)c4ccc(Cl)cc4)CC3)[C@@H](C)C2)c(Cl)c1 (stereo partly shown) [compound 243]
47 | 25 to 100 nM | – | O=C(NCc1ccc(F)cc1)c1cnc(N2CCN(C3CCN(Cc4ccc(Cl)cc4)CC3)CC2)c(Cl)c1 [compound 297]
48 | < 25 nM | – | C[C@@H]1CN(c2ncc(C(=O)NCc3ccc(F)c(F)c3)cc2Cl)CCN1C1CCN(Cc2ccc(Cl)cc2)CC1 [compound 254]
49 | 25 to 100 nM | – | CC1CN(C2CCN(Cc3ccc(Cl)cc3)CC2)CCN1c1ncc(C(=O)NCc2ccc(Cl)c(Cl)c2)cc1Cl (stereo not shown) [compound 122]
50 | 25 to 100 nM | – | CC[C@H]1CN(c2ncc(C(=N)NN)cc2Cl)CCN1C1CCN(Cc2ccc(Cl)cc2F)CC1 [compound 426]
51 | < 25 nM | – | CCNC(=O)c1cnc(N2CCN(C3CCN(Cc4ccc(Cl)cc4)CC3)[C@@H](CC)C2)c(Cl)c1 [compound 213]
52 | 25 to 100 nM | – | O=C(NCc1ccc(Br)cc1)c1cnc(N2CCN(C3CCN(Cc4ccc(F)c(F)c4)CC3)CC2)c(Cl)c1 [compound 99]
53 | 25 to 100 nM | – | O=C(NCc1cccc(F)c1)c1cnc(N2CCN(C3CCN(Cc4ccc(Cl)c(F)c4)CC3)CC2)c(Cl)c1 [compound 296]
54 | < 25 nM | – | CC[C@H]1CN(c2ncc(CNC(=O)NCC(F)(F)F)cc2Cl)CCN1C1CCN(Cc2ccc(Br)cc2F)CC1 [compound 371]
55 | < 25 nM | – | CNC(=O)c1cnc(N2CCN(C3CCN(Cc4ccc(Cl)cc4)C(C)C3)[C@@H](C)C2)c(Cl)c1 (stereo partly shown) [compound 252]
56 | 25 to 100 nM | – | CCNC(=O)c1cnc(N2CCN(C3CCN([C@@H](C)c4ccc(Cl)cc4)CC3)[C@@H](C)C2)c(Cl)c1 [compound 294]
57 | < 25 nM | – | CC[C@H]1CN(c2ncc(CNC(=O)NC3CC3)cc2Cl)CCN1C1CCN(Cc2ccc(Cl)cc2F)CC1 [compound 372]
58 | < 25 nM | – | CNC(=O)c1cnc(N2CCN(C3CCN(Cc4ccc(Cl)cc4F)CC3)[C@@H](C)C2)c(Cl)c1 [compound 258]
59 | 25 to 100 nM | – | CC[C@H]1CN(c2ncc(C(=O)NC3CC3)cc2Cl)CCN1C1CCN(Cc2ccc(F)cc2C(F)(F)F)CC1 [compound 318]
60 | 25 to 100 nM | – | O=C(NCc1ccc(F)c(Cl)c1)c1cnc(N2CCN(C3CCN(Cc4ccc(F)c(F)c4)CC3)CC2)c(Cl)c1 [compound 154]
61 | < 25 nM | – | O=C(NCc1ccc(Cl)c(Cl)c1)c1cnc(N2CCN(C3CCN(Cc4ccc([N+](=O)[O-])cc4)CC3)CC2)c(Cl)c1 [compound 162]
62 | < 25 nM | – | CCNC(=O)NCc1cnc(N2CCN(C3CCN(Cc4ccc(Cl)cc4)CC3)[C@@H](C)C2)c(Cl)c1 [compound 385]
63 | 25 to 100 nM | – | O=C(NCc1ccc(Cl)cc1Cl)c1cnc(N2CCN(C3CCN(Cc4ccc(Cl)cc4)CC3)CC2)c(Cl)c1 [compound 149]
